The source of these data is patent publication US7589087B2 (Janssen Pharmaceutica, N.V., priority 2006, dated 2009).

SMILES strings stand for the structures.

The target in the assay is T1, human histamine H4 receptor (Homo sapiens, UniProt Q9H3N8).
T1 construct: expressed in transfected cells; host or cells: SK-N-MC cells or COS7 cells, transiently transfected; membranes prepared
Briefly: Binding Assay on Recombinant Human Histamine H4 Receptor (3H-histamine competition, membranes of transfected SK-N-MC or COS7 cells). Also: ligand 5 nM. As for the experimental part:
SK-N-MC cells or COS7 cells were transiently transfected with pH4R and grown in 150 cm^2 tissue culture dishes. Cells were washed with saline solution, scraped with a cell scraper and collected by centrifugation (1000 rpm, 5 min). Cell membranes were prepared by homogenization of the cell pellet in 20 mM Tris-HCl with a polytron tissue homogenizer for 10 sec at high speed. Homogenate was centrifuged at 1000 rpm for 5 min at 4° C. The supernatant was then collected and centrifuged at 20,000×g for 25 min at 4° C. The final pellet was resuspended in 50 mM Tris-HCl. […] Incubation occurred at room temperature for 45 min. Membranes were harvested by rapid filtration over Whatman GF/C filters and washed 4 times with ice-cold 50 mM Tris HCl. Filters were then dried, mixed with scintillant and counted for radioactivity.

T1 sequence (Q9H3N8 whole entry): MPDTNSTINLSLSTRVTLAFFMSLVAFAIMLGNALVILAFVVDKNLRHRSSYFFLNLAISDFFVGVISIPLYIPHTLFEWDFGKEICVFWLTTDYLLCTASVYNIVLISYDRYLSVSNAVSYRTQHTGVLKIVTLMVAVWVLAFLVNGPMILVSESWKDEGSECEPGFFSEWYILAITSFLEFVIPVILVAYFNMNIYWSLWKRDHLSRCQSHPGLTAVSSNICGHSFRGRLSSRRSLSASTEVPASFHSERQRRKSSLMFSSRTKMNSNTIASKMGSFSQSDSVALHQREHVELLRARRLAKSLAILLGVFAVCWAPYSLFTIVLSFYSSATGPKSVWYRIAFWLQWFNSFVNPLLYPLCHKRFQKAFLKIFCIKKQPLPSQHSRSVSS

As to `Cc1cccc2[nH]c(-c3ccnc(NCCCCC4CCN(C)CC4)c3)nc12` [Example 15, [4-(4-Methyl-1H-benzoimidazol-2-yl)-pyridin-2-yl]-[4-(1-methyl-piperidin-4-yl)-butyl]-amine], the Ki worked out at 1 nM.
Under `Cc1c(F)ccc2[nH]c(-c3ccnc(NCCCCC4CCN(C)CC4)c3)nc12` [Example 16, [4-(5-Fluoro-4-methyl-1H-benzoimidzol-2-yl)-pyridin-2-yl]-[4-(1-methyl-piperidin-4-yl)-butyl]-amine] stands 2 nM; under `Cc1cc(Cl)cc2[nH]c(-c3ccnc(NCCCCC4CCN(C)CC4)c3)nc12` [Example 17, [4-(6-Chloro-4-methyl-1H-benzoimidazol-2-yl)-pyridin-2-yl]-[4-(1-methyl-piperidin-4-yl)-butyl]-amine], 8 nM; under `Cc1cc(C)c2nc(-c3ccnc(NCCCCC4CCN(C)CC4)c3)[nH]c2c1` [Example 18, [4-(4,6-Dimethyl-1H-benzoimidazol-2-yl)-pyridin-2-yl]-[4-(1-methyl-piperidin-4-yl)-butyl]-amine], 2 nM.
Under `Cc1c(F)ccc2[nH]c(-c3ccnc(NCCCCN4CCCN(C)CC4)c3)nc12` [Example 19, [4-(5-Fluoro-4-methyl-1H-benzoimidazol-2-yl)-pyridin-2-yl]-[4-(4-methyl-[1,4]diazepan-1-yl)-butyl]-amine] stands 5 nM; under `Cc1c(F)ccc2[nH]c(-c3ccnc(NC(=O)CCCC4CCN(C)CC4)c3)nc12` [Example 20, N-[4-(5-Fluoro-4-methyl-1H-benzoimidazol-2-yl)-pyridin-2-yl]-4-(1-methyl-piperidin-4-yl)-butyramide], 250 nM; under `Cc1cc(C)c2nc(-c3ccnc(NC(=O)CCCC4CCN(C)CC4)c3)[nH]c2c1` [Example 21, N-[4-(4,6-Dimethyl-1H-benzoimidazol-2-yl)-pyridin-2-yl]-4-(1-methyl-piperidin-4-yl)-butyramide], 290 nM.
Under `COC(=O)c1ccc2[nH]c(-c3ccc(N(C)CCCC4CCN(C)CC4)nc3)nc2c1` [Example 22, 2-(6-{Methyl-[3-(1-methyl-piperidin-4-yl)-propyl]-amino}-pyridin-3-yl)-1H-benzoimidazole-5-carboxylic acid methyl ester] stands 420 nM.
Turning to `Cc1cccc2[nH]c(-c3ccc(NCCCC4CCN(C)CC4)nc3)nc12` [Example 23, [5-(4-Methyl-1H-benzoimidazol-2-yl)-pyridin-2-yl]-[3-(1-methyl-piperidin-4-yl)-propyl]-amine], the Ki turned out to be 240 nM.
Under `Cc1cc(C)c2nc(-c3ccc(NCCCC4CCN(C)CC4)nc3)[nH]c2c1` [Example 24, [5-(4,6-Dimethyl-1H-benzoimidazol-2-yl)-pyridin-2-yl]-[3-(1-methyl-piperidin-4-yl)-propyl]-amine] stands 23 nM.
With `Cc1ccc2[nH]c(-c3ccc(NCCCC4CCN(C)CC4)nc3)nc2c1C` [Example 25, [5-(4,5-Dimethyl-1H-benzoimidazol-2-yl)-pyridin-2-yl]-[3-(1-methyl-piperidin-4-yl)-propyl]-amine], the Ki is 58 nM.
With `CN1CCC(CCCNc2ccc(-c3nc4cc(Cl)c(F)cc4[nH]3)cn2)CC1` [Example 26, [5-(5-Chloro-6-fluoro-1H-benzoimidazol-2-yl)-pyridin-2-yl]-[3-(1-methyl-piperidin-4-yl)-propyl]-amine], the Ki was found to be 13 nM.
On to `Cc1ccc2[nH]c(-c3ccc(N(C)CCCC4CCN(C)CC4)nc3)nc2c1C` [Example 27, [5-(4,5-Dimethyl-1H-benzoimidazol-2-yl)-pyridin-2-yl]-methyl-[3-(1-methyl-piperidin-4-yl)-propyl]-amine], for which the Ki turned out to be 72 nM.
Under `CN1CCC(CCCN(C)c2ccc(-c3nc4c(F)c(F)ccc4[nH]3)cn2)CC1` [Example 28, [5-(4,5-Difluoro-1H-benzoimidazol-2-yl)-pyridin-2-yl]-methyl-[3-(1-methyl-piperidin-4-yl)-propyl]-amine] stands 37 nM; under `CN1CCC(CCCNc2ccc(-c3nc4c(F)c(F)ccc4[nH]3)cn2)CC1` [Example 29, [5-(4,5-Difluoro-1H-benzoimidazol-2-yl)-pyridin-2-yl]-[3-(1-methyl-piperidin-4-yl)-propyl]-amine], 89 nM.
Under `CN1CCC(CCCNc2ccc(-c3nc4cc(C(=O)c5ccccc5)ccc4[nH]3)cn2)CC1` [Example 30, (2-{6-[3-(1-Methyl-piperidin-4-yl)-propylamino]-pyridin-3-yl}-1H-benzoimidazol-5-yl)-phenyl-methanone] stands 520 nM; under `CN1CCC(CCCNc2ccc(-c3nc4c(Cl)cccc4[nH]3)cn2)CC1` [Example 31, [5-(4-Chloro-1H-benzoimidazol-2-yl)-pyridin-2-yl]-[3-(1-methyl-piperidin-4-yl)-propyl]-amine], 2670 nM.
Consider `CN1CCC(CCCNc2ccc(-c3nc4cc(F)ccc4[nH]3)cn2)CC1` [Example 32, [5-(5-Fluoro-1H-benzoimidazol-2-yl)-pyridin-2-yl]-[3-(1-methyl-piperidin-4-yl)-propyl]-amine], for which the Ki came out at 41 nM.
The same measure for `Cc1cc(C)c2nc(-c3ccc(NCCCN4CCN(C)CC4)nc3)[nH]c2c1` [Example 33, [5-(4,6-Dimethyl-1H-benzoimidazol-2-yl)-pyridin-2-yl]-[3-(4-methyl-piperazin-1-yl)-propyl]-amine]: 680 nM; for `CC(C)N(CCCN1CCN(C)CC1)c1ccc(-c2nc3cc(Cl)ccc3[nH]2)cn1` [Example 34, [5-(5-Chloro-1H-benzoimidazol-2-yl)-pyridin-2-yl]-isopropyl-[3-(4-methyl-piperazin-1-yl)-propyl]-amine]: 570 nM.
The same measure for `Cc1ccc2[nH]c(-c3ccnc(NC(=O)CCCC4CCN(C)CC4)c3)nc2c1C` [Example 35, N-[4-(4,5-Dimethyl-1H-benzoimidazol-2-yl)-pyridin-2-yl]-4-(1-methyl-piperidin-4-yl)-butyramide]: 470 nM; for `CN1CCC(CCCC(=O)Nc2cc(-c3nc4cc(Cl)ccc4[nH]3)ccn2)CC1` [Example 36, N-[4-(5-Chloro-1H-benzoimidazol-2-yl)-pyridin-2-yl]-4-(1-methyl-piperidin-4-yl)-butyramide]: 660 nM; for `Cc1ccc2[nH]c(-c3ccc(N(CCCC4CCN(C)CC4)C(C)C)nc3)nc2c1C` [Example 37, [5-(4,5-Dimethyl-1H-benzoimidazol-2-yl)-pyridin-2-yl]-isopropyl-[3-(1-methyl-piperidin-4-yl)-propyl]-amine]: 3470 nM.
Under `Cc1cccc2[nH]c(-c3ccnc(NC(=O)CCCC4CCN(C)CC4)c3)nc12` [Example 38, N-[4-(4-Methyl-1H-benzoimidazol-2-yl)-pyridin-2-yl]-4-(1-methyl-piperidin-4-yl)-butyramide] stands 3330 nM.

Usually Ki stands for the dissociation constant of the complex between target and ligand, obtained from inhibition or displacement.
